Reference: PMC8571713 (Experimental neurology, 2021)
pIC50: −log10 of the molar value.

Experiments:
[1] = target: T1, dSARM1 ARM (Drosophila SARM1 ARM domain) (Drosophila melanogaster, UniProt Q6IDD9); assay: crystal structure; assay type: binding
T1 sequence (Q6IDD9 315-678): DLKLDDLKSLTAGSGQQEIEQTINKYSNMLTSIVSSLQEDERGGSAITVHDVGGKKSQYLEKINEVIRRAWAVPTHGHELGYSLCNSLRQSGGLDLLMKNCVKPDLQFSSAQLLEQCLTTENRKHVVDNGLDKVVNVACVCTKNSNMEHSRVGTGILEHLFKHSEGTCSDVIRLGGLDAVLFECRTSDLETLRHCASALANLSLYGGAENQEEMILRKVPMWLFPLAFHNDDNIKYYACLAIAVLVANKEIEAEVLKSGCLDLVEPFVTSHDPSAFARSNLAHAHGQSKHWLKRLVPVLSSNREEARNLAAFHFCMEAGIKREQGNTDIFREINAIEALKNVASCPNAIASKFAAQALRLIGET

hSARM1 (human SARM1) = target: T2, hSARM1 (human SARM1) (Homo sapiens, UniProt Q6SZW1); assay: STD NMR with NMN competition; assay type: biochemical
T2 sequence (Q6SZW1 28-724): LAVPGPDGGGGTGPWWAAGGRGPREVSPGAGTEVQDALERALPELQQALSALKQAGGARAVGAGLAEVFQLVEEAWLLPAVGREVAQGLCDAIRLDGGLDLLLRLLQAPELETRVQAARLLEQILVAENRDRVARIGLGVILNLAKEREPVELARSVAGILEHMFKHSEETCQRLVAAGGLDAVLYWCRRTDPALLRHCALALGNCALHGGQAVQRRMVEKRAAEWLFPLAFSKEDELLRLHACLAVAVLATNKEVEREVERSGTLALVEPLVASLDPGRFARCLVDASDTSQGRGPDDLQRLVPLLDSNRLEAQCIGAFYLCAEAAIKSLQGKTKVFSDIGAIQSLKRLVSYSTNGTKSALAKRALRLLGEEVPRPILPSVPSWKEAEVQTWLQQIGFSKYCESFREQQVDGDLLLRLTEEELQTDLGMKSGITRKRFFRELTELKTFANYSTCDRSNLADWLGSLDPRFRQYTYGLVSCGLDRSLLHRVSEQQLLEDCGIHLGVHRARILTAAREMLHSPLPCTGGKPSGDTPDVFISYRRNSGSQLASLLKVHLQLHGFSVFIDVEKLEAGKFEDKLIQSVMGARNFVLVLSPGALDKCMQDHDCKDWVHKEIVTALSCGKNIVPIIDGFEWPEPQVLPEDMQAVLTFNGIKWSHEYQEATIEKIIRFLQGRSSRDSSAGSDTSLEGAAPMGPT

O=C([O-])c1ccc[n+]([C@@H]2O[C@H](COP(=O)(O)O)[C@@H](O)[C@H]2O)c1 [NaMN, nicotinic acid mononucleotide]
crystal structure (3.31 Å, soaking with 20 mM NaMN); STD NMR [1]: we determined the crystal structure of the NaMN-bound ARM domain of Drosophila SARM1 (dSARM1ARM) (PDB: 7RTC | pIC50 (hSARM1 (human SARM1)): 4.03
